These results are taken from PMC4995014, “Identification of ABC Transporter Interaction of a Novel Cyanoquinoline Radiotracer and Implications for Tumour Imaging by Positron Emission Tomography” (PLoS ONE, 2016).

In series [1] the test system is 3T3-MDR1 cells. The series is described as follows: SRB cell viability assay in 3T3-MDR1 cells (ABCB1 expressing). As to conditions: GI50 3T3-MDR1 over GI50 3T3, without zosuquidar. The format is cell-based. The method, then:
(§1) Cell viability by the sulforhodamine B (SRB) assay was used to assess cell growth and cytotoxicity of test compounds [29]. Cells were seeded at densities of 3,500 to 5,000 cells per well in 96 well plates overnight and pre-treated for 1 h with ABC transporter modulators: 10 μM fumitremorgin C (FTC; in MCF7MX and MCF7 cells), or 0.3 μM of zosuquidar (in 3T3 and 3T3-MDR1). Cells were then treated with test compounds for 72 h, at 37°C. After drug treatment, cells were fixed by addition of 50% trichloroacetic acid (TCA), and the plates washed and dried to allow staining with 0.4% solution of sulforhodamine B (Sigma) in 1% acetic acid for 30 minutes. Excess dye was removed upon washing with 1% acetic acid. Plates were dried and bound protein was solubilised upon addition of 150 μL of 10 mM Tris base buffer. Absorbance was measured at 540 nm using Thermo Multiskan-Ex plate reader. Cell viability versus compound concentration curves were plotted as a percentage of control cells. The concentration of drug that gave 50% inhibition in cell growth (GI50) was extrapolated from these curves using the sigmoid curve fit with variable slope in Prism (GraphPad Prism version 5.01, GraphPad Software, San Diego California USA). Three to six replicate wells were used for each drug concentration and experiments were carried out on three separate occasions for each compound.

Series [2] has as its system ABCB1 (MDR1). The series is described as above. The format is cell-based. As to conditions: mouse, 3T3-MDR1 cells (ABCB1 expressing), 72 h, SRB. How it is done: as §1
Series [3] has as its target T1, EGFR Del E746-A750/T790M (PC9ER cells) (Homo sapiens, UniProt P00533, DEL746-750/T790M).
T1 construct: endogenous in cells; host or cells: PC9ER (Dr Olivier Pardo, Imperial College London)
Kind of series: Inhibition of EGFR autophosphorylation (p-EGFR Y1068, western blot) in PC9ER cells. The format is cell-based. How it is done: (§2) Affinity of the cyanoquinolines for EGFR was established by measuring their inhibition of EGFR autophosphorylation via western blot. Cells were seeded in 6 well plates and following 24 h of growth, were subject to overnight serum starvation. The cells were then treated with increasing concentrations of cyanoquinolines prepared in serum free growth media from a DMSO stock (final DMSO concentration < 1%) for 3 h at 37°C, and stimulated for receptor autophosphorylation by addition of 100 ng/mL of EGF during the last 15 minutes of drug incubation. After 3 h the cells were placed on ice, media removed and then the cells were washed two times with ice cold phosphate buffered saline (PBS). Lysates were analysed by western blot to measure changes to p-EGFR Y1068.
Cells were collected into a microcentrifuge tube and sonicated for 30 seconds on ice. Cellular protein levels were assessed using a bicinchoninic acid (BCA) protein assay kit according to the manufacturer’s instructions (Thermo scientific). […] Samples were transferred to polyvinylidene difluoride (PVDF) membrane using Trans-Blot Turbo system BIO-RAD (Hercules, California, USA). […] The membranes were then incubated overnight with primary antibody prepared in 1% milk or 1% BSA in TBST. […] Membranes were washed a further three times for 10 minutes with TBST. Blots were visualised using chemoluminescence (ECL, GE Healthcare, Little Chalfont, UK) and developed on Amersham Hyperfilm ECL (GE Healthcare). β-Actin was used as a loading control.

For series [4], the target named is T2, EGFR Del E746-A750 (H1650 cells) (Homo sapiens, UniProt P00533, DEL746-750).
T2 construct: endogenous in cells; host or cells: H1650 (ATCC)
T2 sequence (P00533 with tags, fused parts or gaps DEL746-750): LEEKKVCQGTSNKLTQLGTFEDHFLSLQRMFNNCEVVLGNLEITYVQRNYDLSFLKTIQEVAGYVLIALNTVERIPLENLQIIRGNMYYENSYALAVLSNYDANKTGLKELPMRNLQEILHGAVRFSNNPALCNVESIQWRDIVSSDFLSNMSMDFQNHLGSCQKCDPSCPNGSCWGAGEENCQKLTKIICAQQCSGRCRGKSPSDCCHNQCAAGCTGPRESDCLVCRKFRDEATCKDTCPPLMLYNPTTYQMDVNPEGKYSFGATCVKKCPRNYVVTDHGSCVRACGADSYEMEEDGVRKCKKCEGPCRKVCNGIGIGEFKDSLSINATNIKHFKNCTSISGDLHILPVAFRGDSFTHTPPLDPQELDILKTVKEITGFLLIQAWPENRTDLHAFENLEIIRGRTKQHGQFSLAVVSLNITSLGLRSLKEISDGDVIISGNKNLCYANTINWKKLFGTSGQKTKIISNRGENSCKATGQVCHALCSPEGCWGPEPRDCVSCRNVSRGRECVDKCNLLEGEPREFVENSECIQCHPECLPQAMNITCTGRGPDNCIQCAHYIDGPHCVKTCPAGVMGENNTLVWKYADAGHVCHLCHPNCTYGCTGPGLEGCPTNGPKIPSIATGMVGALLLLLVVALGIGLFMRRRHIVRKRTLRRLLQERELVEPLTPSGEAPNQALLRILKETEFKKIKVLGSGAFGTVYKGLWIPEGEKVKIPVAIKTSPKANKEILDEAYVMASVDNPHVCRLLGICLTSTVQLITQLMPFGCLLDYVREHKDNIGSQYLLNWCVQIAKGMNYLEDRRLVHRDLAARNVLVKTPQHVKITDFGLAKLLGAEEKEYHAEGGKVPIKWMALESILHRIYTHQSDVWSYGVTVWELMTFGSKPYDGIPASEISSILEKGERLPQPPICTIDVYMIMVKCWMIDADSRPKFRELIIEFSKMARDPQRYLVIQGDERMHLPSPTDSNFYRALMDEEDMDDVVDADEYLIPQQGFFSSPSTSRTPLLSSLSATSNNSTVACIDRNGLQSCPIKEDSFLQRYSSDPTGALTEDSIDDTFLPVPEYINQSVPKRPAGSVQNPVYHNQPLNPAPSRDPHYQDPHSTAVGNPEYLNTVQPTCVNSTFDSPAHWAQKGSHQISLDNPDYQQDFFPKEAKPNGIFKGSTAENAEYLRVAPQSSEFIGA
The series is described as follows: Inhibition of EGFR autophosphorylation (p-EGFR Y1068, western blot) in H1650 cells. It is filed as cell-based. The following applies: 3 h incubation, EGF stimulated. The method, then: as §2
Cell lysates were prepared by addition of radioimmunoprecipitation assay (RIPA) buffer (50mM Tris-HCl pH 7.2, 150mM NaCl, 1% NP40, 1% sodium deoxycholate, 0.1% sodium dodecyl sulfate) supplemented with 1 x protease and phosphatase inhibitor cocktail (1mM 4-(2-Aminoethyl)benzenesulfonylfluoride hydrochloride, 800 nM aprotinin, 50 μM bestatin, 15 μM E-64, 5μM EDTA, 20 μM leupeptin, 10 μM pepstatin A; Thermo scientific, Waltham, Massachusetts, USA). […] Cellular protein levels were assessed using a bicinchoninic acid (BCA) protein assay kit according to the manufacturer’s instructions (Thermo scientific). […]

Series [5] has as its system EGFR. The arrangement: method as in PMID 20797871, PMID 24307532. As to conditions: cell-free; read-out: IC50 for inhibition of cell-free EGFR phosphorylation; cited from earlier work.

T1 sequence (P00533 with tags, fused parts or gaps DEL746-750/T790M): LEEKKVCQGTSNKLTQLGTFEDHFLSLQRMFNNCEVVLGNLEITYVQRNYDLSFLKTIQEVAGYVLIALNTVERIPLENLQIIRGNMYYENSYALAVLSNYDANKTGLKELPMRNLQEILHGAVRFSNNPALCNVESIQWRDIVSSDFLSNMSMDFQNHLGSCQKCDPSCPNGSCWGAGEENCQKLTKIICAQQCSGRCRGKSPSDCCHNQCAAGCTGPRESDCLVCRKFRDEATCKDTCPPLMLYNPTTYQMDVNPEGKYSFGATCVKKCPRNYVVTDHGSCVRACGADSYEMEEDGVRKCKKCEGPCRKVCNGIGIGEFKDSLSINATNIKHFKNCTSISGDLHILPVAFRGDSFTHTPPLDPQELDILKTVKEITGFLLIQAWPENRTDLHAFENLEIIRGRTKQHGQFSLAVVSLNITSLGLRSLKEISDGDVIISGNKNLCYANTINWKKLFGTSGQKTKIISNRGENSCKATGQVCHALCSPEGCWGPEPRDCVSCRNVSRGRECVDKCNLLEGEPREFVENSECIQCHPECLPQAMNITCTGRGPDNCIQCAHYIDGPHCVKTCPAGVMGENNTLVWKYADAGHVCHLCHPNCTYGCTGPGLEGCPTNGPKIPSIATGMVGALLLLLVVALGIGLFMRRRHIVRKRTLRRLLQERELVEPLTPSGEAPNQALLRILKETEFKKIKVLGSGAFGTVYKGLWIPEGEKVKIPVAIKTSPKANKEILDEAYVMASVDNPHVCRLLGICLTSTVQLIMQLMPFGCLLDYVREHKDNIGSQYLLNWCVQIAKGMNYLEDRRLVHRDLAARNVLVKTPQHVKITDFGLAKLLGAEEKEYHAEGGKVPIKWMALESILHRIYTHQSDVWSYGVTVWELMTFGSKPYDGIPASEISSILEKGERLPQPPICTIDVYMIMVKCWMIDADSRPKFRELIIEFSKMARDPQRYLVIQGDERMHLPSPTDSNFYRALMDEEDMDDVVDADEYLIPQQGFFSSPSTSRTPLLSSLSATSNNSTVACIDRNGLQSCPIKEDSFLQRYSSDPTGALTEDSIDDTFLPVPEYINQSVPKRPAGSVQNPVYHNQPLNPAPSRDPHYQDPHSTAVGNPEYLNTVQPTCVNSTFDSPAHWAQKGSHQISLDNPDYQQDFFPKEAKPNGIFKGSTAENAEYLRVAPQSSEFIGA

By GI50 is commonly meant the concentration at which growth is held to half of that of the control. As a reminder, the IC50 is the midpoint of a concentration-inhibition curve. With `CCOc1cc2ncc(C#N)c(Nc3ccc(F)c(Cl)c3)c2cc1NC(=O)/C=C/CNCc1cn(CCF)nn1` [FED6, (2E)-N-{4-[(3-chloro-4-fluorophenyl)amino]-3-cyano-7-ethoxyquinolin-6-yl}-4-({[1-(2-fluoroethyl)-1H-1,2,3-triazol-4-yl]methyl}amino)-but-2-enamide], the “fold increase in GI50 in the ABCB1 overexpressing cell line” value in series [1] is given as more than 10 fold. Further, the GI50 at 72 h in series [2] (with zosuquidar 0.3 μM (1 h pre-treatment), pre-treatment with 0.3 μM zosuquidar) is 13.6 ± 0.6 µM; in series [2] (without zosuquidar), more than 100 µM. In addition, the IC50 was 0.045 µM in series [3] (3 h incubation, EGF stimulated); 0.04 µM in series [4]; 0.0018 µM in series [5]. Further, the “fold higher IC50 (p-EGFR) in PC9ER compared to PC9” value in series [3] (PC9ER versus isogenic PC9) was 2 fold.
